Among the test systems are 786-0 renal; HL-60(TB) leukemia; MCF7 breast; MOLT-4 leukemia; OVCAR-3 ovarian; SF-295 CNS; SF-539 CNS; SK-MEL-2 melanoma; SK-MEL-28 melanoma; UACC-62 melanoma.
Assay in all cases: NCI anticancer screen, dose series, 48 h

For 20 compounds, TGI and GI50 results are on record in PubChem BioAssay (NCI).

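Five concentrations, 48 hours, 96-well plates. GI50 is the concentration that inhibits growth by half. TGI: total growth inhibition.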 Bounds are passed on as bounds.

Consider `Cn1ccnc1CCc1ccc(F)cc1F`, for which the TGI with 786-0 renal, in the experiment with HL-60(TB) leukemia, with MCF7 breast, in the experiment with MOLT-4 leukemia, in the experiment on OVCAR-3 ovarian and in the experiment with SF-295 CNS was > 100 µM each time. In addition, the TGI in the experiment with SF-539 CNS, with SK-MEL-2 melanoma, with SK-MEL-28 melanoma and in the experiment on UACC-62 melanoma was > 100 µM in each case.

As to `COC(c1ccsc1)C(C#N)(C#N)N=Cc1ccsc1` (centres undefined), the TGI stood at 37.9 µM in the experiment on 786-0 renal; 16.2 µM with HL-60(TB) leukemia; 15.6 µM in the experiment on MCF7 breast; 43.3 µM with MOLT-4 leukemia; 42.2 µM in the experiment on OVCAR-3 ovarian; 34.9 µM in the experiment on SF-295 CNS. For the same compound, the TGI is 30.4 µM in the experiment on SF-539 CNS, 35.6 µM in the experiment on SK-MEL-2 melanoma, 33.1 µM in the experiment with SK-MEL-28 melanoma and 28.7 µM in the experiment with UACC-62 melanoma.

`Cc1c(CNc2ccc(Cl)c(C(=O)NC(CC(=O)O)C(=O)O)c2)ccc2nc(N)nc(N)c12` (centres undefined): the TGI in the experiment on 786-0 renal, in the experiment on HL-60(TB) leukemia, in the experiment with MCF7 breast, in the experiment with MOLT-4 leukemia, with OVCAR-3 ovarian and with SF-295 CNS was > 1000 µM each time. In addition, the TGI in the experiment on SF-539 CNS, with SK-MEL-2 melanoma and with UACC-62 melanoma was > 1000 µM each time. Moreover, the results for the GI50 with OVCAR-3 ovarian, in the experiment on SF-539 CNS and in the experiment on SK-MEL-2 melanoma were 16.8 µM, 0.446 µM and > 1000 µM, respectively.

For the compound `CCSSCS(C)(=O)=O`, the TGI in the experiment on 786-0 renal is 21.4 µM; with HL-60(TB) leukemia it was > 100 µM; in the experiment on MCF7 breast it was 68.5 µM; in the experiment on MOLT-4 leukemia, > 100 µM; in the experiment with OVCAR-3 ovarian, 99.2 µM; in the experiment with SF-295 CNS it was > 100 µM. The TGI was 29.5 µM in the experiment on SF-539 CNS, > 100 µM in the experiment on SK-MEL-2 melanoma, > 100 µM in the experiment on SK-MEL-28 melanoma and > 100 µM in the experiment on UACC-62 melanoma.

In the case of `CC1CN=C(Nc2cccc(C(F)(F)F)c2)S1` (centres undefined), the TGI with HL-60(TB) leukemia is 77 µM; in the experiment on MCF7 breast, > 100 µM; in the experiment with MOLT-4 leukemia, > 100 µM; with OVCAR-3 ovarian it was > 100 µM; in the experiment on SF-539 CNS, > 100 µM; with SK-MEL-2 melanoma, > 100 µM. Moreover, the TGI in the experiment with SK-MEL-28 melanoma and in the experiment with UACC-62 melanoma was > 100 µM throughout.

For `O=C(Nc1ccccc1)c1cc2c(cc1Cl)Sc1nccn1S2(=O)=O`, the TGI was 71.4 µM in the experiment on 786-0 renal; 56.1 µM in the experiment with HL-60(TB) leukemia; > 60 µM with MCF7 breast; > 69 µM with MOLT-4 leukemia; 59.3 µM in the experiment with OVCAR-3 ovarian; > 100 µM in the experiment on SF-295 CNS. Moreover, the TGI with SF-539 CNS is > 83.6 µM; in the experiment with SK-MEL-2 melanoma, 58.3 µM; with SK-MEL-28 melanoma it was 46.9 µM; with UACC-62 melanoma it was 38.4 µM.

As for `Cc1c(-c2ccccc2)c(C#N)c2nnn(-c3ccccc3)c(=O)n12`, the TGI in the experiment on 786-0 renal, in the experiment with HL-60(TB) leukemia, in the experiment with MCF7 breast, with OVCAR-3 ovarian, with SF-295 CNS and with SF-539 CNS was > 100 µM each time. For the same compound, the TGI with SK-MEL-2 melanoma, in the experiment with SK-MEL-28 melanoma and with UACC-62 melanoma was > 100 µM throughout.

As to `Cc1cccc2c1C(=O)C1(Cc3ccccc3C1=O)C2` (centres undefined), the TGI in the experiment on 786-0 renal, in the experiment with HL-60(TB) leukemia, in the experiment with MCF7 breast, in the experiment on MOLT-4 leukemia, in the experiment with OVCAR-3 ovarian and in the experiment with SF-295 CNS was > 100 µM in each case. The TGI in the experiment on SF-539 CNS, in the experiment on SK-MEL-28 melanoma and with UACC-62 melanoma was > 100 µM throughout.

As for `CC(=O)Nc1ccc2c(C(=O)O)c(C)c(=O)[nH]c2n1`, the TGI in the experiment on 786-0 renal, with HL-60(TB) leukemia, in the experiment with MCF7 breast, in the experiment with MOLT-4 leukemia, in the experiment with SF-295 CNS and with SF-539 CNS was > 100 µM each time. In addition, the TGI with SK-MEL-2 melanoma and with UACC-62 melanoma was > 100 µM throughout.

`Nc1ccc2c(c1)C1Oc3ccccc3CC1CO2` (centres undefined): the TGI in the experiment on 786-0 renal, in the experiment on HL-60(TB) leukemia, in the experiment with MCF7 breast, in the experiment on MOLT-4 leukemia, in the experiment with OVCAR-3 ovarian and with SF-295 CNS was > 100 µM each time. Also, the TGI with SF-539 CNS, in the experiment with SK-MEL-2 melanoma and with UACC-62 melanoma was > 100 µM each time.

With `CCOC(=O)c1c(SC(=O)c2cc(OC)c(OC)c(OC)c2)n(-c2ccccc2)c(=S)n(-c2ccccc2)c1=O`, the TGI with 786-0 renal, in the experiment on HL-60(TB) leukemia, in the experiment with MCF7 breast, in the experiment with MOLT-4 leukemia, in the experiment on OVCAR-3 ovarian and in the experiment with SF-295 CNS was > 100 µM each time. For the same compound, the TGI in the experiment with SF-539 CNS, with SK-MEL-28 melanoma and in the experiment with UACC-62 melanoma was > 100 µM each time.

For `COC12C=C/C(=C(/C(=O)OCc3ccncn3)C(=O)CCCCCCCCC3(OC)C=C/C(=C(/C(=O)OCc4ccncn4)C(=O)CCCCCCCC1)O3)O2`, the GI50 was 0.298 µM with HL-60(TB) leukemia; 0.314 µM in the experiment on MCF7 breast; 0.317 µM in the experiment with OVCAR-3 ovarian; 0.221 µM with SF-295 CNS; 0.354 µM with SF-539 CNS; 0.428 µM with SK-MEL-2 melanoma. The GI50 with SK-MEL-28 melanoma is 0.317 µM. For the same compound, the TGI worked out at 1.4 µM in the experiment on HL-60(TB) leukemia; 11 µM with MCF7 breast; 0.903 µM in the experiment with OVCAR-3 ovarian; 0.703 µM in the experiment with SF-295 CNS; 2.66 µM in the experiment with SF-539 CNS; 5.55 µM in the experiment with SK-MEL-2 melanoma. Moreover, the TGI with SK-MEL-28 melanoma is 2.51 µM.

Turning to `CCN1CCN(C(=O)[C@]23CC[C@@H](C)[C@H](C)[C@@H]2C2=CC[C@@H]4[C@@]5(C)C/C(=C/c6cccnc6)C(=O)C(C)(C)[C@@H]5CC[C@@]4(C)[C@]2(C)CC3)CC1`, the GI50 with HL-60(TB) leukemia was 2.08 µM; in the experiment with MCF7 breast it was 1.64 µM; in the experiment with MOLT-4 leukemia, 2.45 µM; with OVCAR-3 ovarian it was 1.65 µM; in the experiment on SF-295 CNS, 1.63 µM; in the experiment with SF-539 CNS it was 1.66 µM. The GI50 with SK-MEL-2 melanoma was 2.12 µM; with SK-MEL-28 melanoma, 1.75 µM; in the experiment on UACC-62 melanoma, 1.51 µM. Also, the TGI worked out at 5 µM in the experiment on HL-60(TB) leukemia; 3.42 µM in the experiment with MCF7 breast; 7.38 µM in the experiment on MOLT-4 leukemia; 3.19 µM in the experiment with OVCAR-3 ovarian; 3.05 µM in the experiment with SF-295 CNS; 3.05 µM in the experiment on SF-539 CNS. Moreover, the values for the TGI with SK-MEL-2 melanoma, in the experiment on SK-MEL-28 melanoma and in the experiment on UACC-62 melanoma were 4.76 µM, 3.15 µM and 2.96 µM, respectively.

Consider `COCn1c(C)c(C)c2c(=O)oc(=O)[nH]c21`, for which the TGI with 786-0 renal, in the experiment with HL-60(TB) leukemia, in the experiment with MCF7 breast, with MOLT-4 leukemia, in the experiment on SF-295 CNS and in the experiment on SF-539 CNS was > 100 µM each time. For the same compound, the TGI with SK-MEL-2 melanoma, in the experiment with SK-MEL-28 melanoma and with UACC-62 melanoma was > 100 µM in each case.

Consider `CCNc1nc(N)c(C(=O)c2ccc(Cl)cc2)s1`, for which the TGI in the experiment with 786-0 renal is > 100 µM; in the experiment with HL-60(TB) leukemia it was 36 µM; in the experiment with MCF7 breast, > 100 µM; in the experiment on MOLT-4 leukemia, > 100 µM; in the experiment with OVCAR-3 ovarian it was 65.4 µM; with SF-539 CNS it was > 100 µM. The TGI in the experiment with SK-MEL-2 melanoma, in the experiment on SK-MEL-28 melanoma and with UACC-62 melanoma was > 100 µM in each case.

Take `CC(=O)Nc1ccc(S(=O)(=O)Nc2nnc(S(N)(=O)=O)s2)cc1`: the TGI in the experiment on 786-0 renal, in the experiment on HL-60(TB) leukemia, in the experiment with MCF7 breast, with MOLT-4 leukemia, with SF-295 CNS and in the experiment on SF-539 CNS was > 100 µM each time. Also, the TGI with UACC-62 melanoma is > 100 µM.

Take `Cc1ccccc1N=C(N)NC#N`: the TGI in the experiment on 786-0 renal, with HL-60(TB) leukemia, in the experiment with MCF7 breast, in the experiment on MOLT-4 leukemia, in the experiment on SF-539 CNS and with SK-MEL-2 melanoma was > 100 µM in each case. Moreover, the TGI with SK-MEL-28 melanoma and in the experiment on UACC-62 melanoma was > 100 µM in each case.

As for `CCSc1ncnc2c(C3OC(CO)C(O)C3O)nsc12` (centres undefined), the TGI in the experiment on HL-60(TB) leukemia, in the experiment on MCF7 breast, in the experiment on MOLT-4 leukemia, in the experiment on OVCAR-3 ovarian, with SF-295 CNS and in the experiment with SF-539 CNS was > 100 µM in each case. Moreover, the TGI in the experiment with SK-MEL-2 melanoma and with SK-MEL-28 melanoma was > 100 µM in each case.

On to `CCOC(=O)C1=CN=C2C(=O)N(c3ccccc3)N(C)C2(C)C1=N` (centres undefined), for which the TGI in the experiment with 786-0 renal, in the experiment on HL-60(TB) leukemia, with MCF7 breast, in the experiment with OVCAR-3 ovarian, in the experiment with SF-295 CNS and in the experiment with SF-539 CNS was > 100 µM in each case. The TGI with SK-MEL-2 melanoma, in the experiment with SK-MEL-28 melanoma and with UACC-62 melanoma was > 100 µM each time.

On to `C(=N\Nc1ncc(-c2cc3cc4c(cc3o2)OCO4)s1)/c1c[nH]c2ccccc12`, for which the GI50 is 2.18 µM in the experiment on HL-60(TB) leukemia; 0.566 µM with MCF7 breast; 0.385 µM with MOLT-4 leukemia; 0.536 µM with OVCAR-3 ovarian; 1.82 µM with SF-295 CNS; 0.669 µM in the experiment with SF-539 CNS. Moreover, the figures for the GI50 in the experiment with SK-MEL-2 melanoma, in the experiment with SK-MEL-28 melanoma and in the experiment with UACC-62 melanoma were 2.6 µM, 3.17 µM and 1.75 µM, respectively. The TGI in the experiment on HL-60(TB) leukemia came to 14.4 µM; in the experiment with MCF7 breast, 5.39 µM; in the experiment on MOLT-4 leukemia, 9.49 µM; in the experiment on OVCAR-3 ovarian, 1.89 µM; in the experiment on SF-295 CNS, 4.31 µM; in the experiment with SF-539 CNS, 1.98 µM. Also, the TGI turned out to be 8.07 µM in the experiment with SK-MEL-2 melanoma, 12.2 µM with SK-MEL-28 melanoma and 3.72 µM with UACC-62 melanoma.
